Source: patent publication US20230181681A1, “PEPTIDE FOR SUPPRESSING CORONAVIRUS AND USE THEREOF” (priority 2020, published 2023)
Ends that are not written are not given here.

What was measured:
HCoV-OC43 [1] = test: HCoV-OC43 S and N protein production in infected Vero cells (Western blotting, confocal microscopy); type: cell-based; conditions: 0.1 MOI, peptide 6 hours after infection, 48 h, FIGS. 20 to 22
SARS-CoV-2 = type: cell-based
MERS-CoV = type: cell-based
HCoV-OC43 [2] = test: HCoV-OC43 production in Vero cells by plaque formation assay; type: cell-based; conditions: 0.1 MOI, 2 μM peptide 6 hours after infection, 48 hours, plaque formation test, FIG. 23
MERS-CoV N protein = type: binding
[3] = tested on: interaction of MERS-CoV Spike CD with MERS-CoV N protein; type: binding

For “CCTGCGTSCFKKCGGCCDDYTGYQELVIKTSHDD [Spike CD-OC43]”, the “production of S protein and N protein of HCoV-OC43” value (HCoV-OC43 [1]) was “no effect was observed”.
For “NH2-d-RRRRRRRRRR-AQARRKNYGQLDIFP-COOH [R-CP-1]”, the “reduction of SARS-CoV-2 production” value (SARS-CoV-2) was 40% and the MERS-CoV plaque formation (MERS-CoV) was “no effect was observed”.
“R-Spike CD-OC43 (RRRRRRRRRCCTGCGTSCFKKCGGCCDDYTGYQELVIKTSHDD; not fully specified; cysteine pairing not given here)” was tested, and the “reduction of HCoV-OC43 production” value (HCoV-OC43 [2]) was 20%.
With TGCGTNCMGKLKCNRC [Spike CD-F] the “binding of Spike CD peptides with N protein” value (MERS-CoV N protein) was “can tightly bind with N protein” and the “relative activity in inhibiting the interaction between Spike CD-Full and N protein” value [3] was “highest activity”.
